Measurements reported in patent US8232409B2, “Heterocyclic benzimidazoles as TRPM8 modulators” (Janssen Pharmaceutica N.V., priority 2008, dated 2012).
pIC50: −log10 of the molar value. Counter-ions that a name gives are not always drawn.

Tests used:
[1] = tested on: CCI-induced cold hypersensitivity in Sprague Dawley rats; assay: Chronic constriction injury (CCI)-induced neuropathic pain, acetone-induced cold hypersensitivity; assay type: in vivo; conditions: po; rat CCI; 10 mg/kg p.o.; 3 h post-dose; read-out: % Inhibition (acetone-evoked paw withdrawals)
Excerpt: Male Sprague Dawley rats (225-450 g; n=5-8/treatment) were used to evaluate the ability of selected compounds of the Formula (I) to reverse CCI-induced cold hypersensitivity. Four loose ligatures of 4-0 chromic gut were surgically placed around the left sciatic nerve under inhalation anesthesia as described by Bennett et al. (Bennett, G. J.; Xie, Y. K. Pain 1988, 33(1), 87-107). Fourteen to 35 days following CCI surgery, subjects were placed in elevated observation chambers containing wire mesh floors and five applications of acetone (0.05 mL/application separated by approximately 5 minutes) were spritzed onto the plantar surface of the paw using a multidose syringe. An abrupt withdrawal or lifting of the paw was considered a positive response. The number of positive responses was recorded for each rat over the five trials. Following baseline withdrawal determinations, compounds of Formula (I) are administered in an appropriate vehicle, such as hydroxypropyl-β-cyclodextrin ([…]), methylcellulose, Methocel, 10% Solutol, or H2O, or the like, by the appropriate route, i.p. or p.o. The number of withdrawals were redetermined 1 to 3 h after compound administration. Results are presented as a percent inhibition of shakes, which was calculated for each subject as [1−(test compound withdrawals/pre-test withdrawals)]×100 and then averaged by treatment.

[2] = tested on: icilin-induced "wet-dog" shakes in Sprague Dawley rats; assay: Reversal of icilin-induced "wet-dog" shakes in rats; assay type: in vivo; conditions: po; rat; 10 mg/kg p.o.; 1 h post-icilin
canine TRPM8 = biological target: T1, canine TRPM8 (Canis lupus familiaris, UniProt Q1A7N1); assay: In vitro canine TRPM8 functional assay (icilin-induced intracellular Ca2+, FLIPR/FDSS);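 for all read-outs here: intracellular Ca2+ tracked with a Ca2+-sensitive fluorescent dye, compound applied 5 min before icilin was added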; assay type: cell-based; conditions: HEK293 cells stably expressing canine TRPM8; for inhibition at 0.2 µM: 0.200 μM compound, icilin challenge (~80% maximal response), read-out: % Inh. @ 0.200 μM; for pIC50: icilin challenge, eight-point dose-response
T1 construct: expressed in transfected cells
T1 sequence (Q1A7N1 1-1104): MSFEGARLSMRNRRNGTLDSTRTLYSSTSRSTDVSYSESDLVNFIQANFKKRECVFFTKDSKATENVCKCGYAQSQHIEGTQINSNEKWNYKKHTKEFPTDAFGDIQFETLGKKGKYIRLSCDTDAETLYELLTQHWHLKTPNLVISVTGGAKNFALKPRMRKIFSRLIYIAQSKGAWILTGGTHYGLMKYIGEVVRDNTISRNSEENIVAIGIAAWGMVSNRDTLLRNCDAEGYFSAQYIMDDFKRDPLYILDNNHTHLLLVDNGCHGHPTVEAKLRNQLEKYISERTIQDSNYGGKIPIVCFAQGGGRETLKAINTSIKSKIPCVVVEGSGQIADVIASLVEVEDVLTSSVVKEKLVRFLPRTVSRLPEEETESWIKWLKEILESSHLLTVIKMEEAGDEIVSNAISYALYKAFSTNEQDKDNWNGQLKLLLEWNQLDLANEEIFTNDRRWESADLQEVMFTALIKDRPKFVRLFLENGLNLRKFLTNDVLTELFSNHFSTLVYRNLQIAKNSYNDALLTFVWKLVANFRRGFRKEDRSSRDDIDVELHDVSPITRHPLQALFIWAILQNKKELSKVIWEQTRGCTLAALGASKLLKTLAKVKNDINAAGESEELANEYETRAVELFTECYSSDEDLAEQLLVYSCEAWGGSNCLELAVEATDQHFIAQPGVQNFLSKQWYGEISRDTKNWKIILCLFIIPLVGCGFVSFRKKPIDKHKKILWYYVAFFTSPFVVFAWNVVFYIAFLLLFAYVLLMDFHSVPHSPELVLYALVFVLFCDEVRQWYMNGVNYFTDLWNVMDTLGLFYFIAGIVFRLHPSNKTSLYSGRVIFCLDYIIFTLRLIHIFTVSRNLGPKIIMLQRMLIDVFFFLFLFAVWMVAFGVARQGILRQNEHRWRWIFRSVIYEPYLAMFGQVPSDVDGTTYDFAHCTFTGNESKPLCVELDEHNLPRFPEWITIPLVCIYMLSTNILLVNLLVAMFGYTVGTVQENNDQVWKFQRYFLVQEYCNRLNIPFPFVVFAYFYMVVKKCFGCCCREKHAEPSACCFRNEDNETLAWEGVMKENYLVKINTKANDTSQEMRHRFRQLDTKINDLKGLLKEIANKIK

| inhibition at 0.2 µM (canine TRPM8) | pIC50 (canine TRPM8) | SMILES | inhibition in vivo at 10 mg/kg [1] | inhibition in vivo at 10 mg/kg [2] |
| --- | --- | --- | --- | --- |
| – | – | FC(F)(F)c1ccccc1-c1ccc2nc(C3=NOC4(CCCCC4)C3)[nH]c2c1 [Cpd 1, 3-[5-(2-Trifluoromethyl-phenyl)-1H-benzimidazol-2-yl]-1-oxa-2-aza-spiro[4.5]dec-2-ene] | 65% | – |
| – | – | FC(F)(F)Oc1ccccc1-c1ccc2[nH]c(C3=NOC4(CCCCC4)C3)nc2c1 [Cpd 7, 3-[5-(2-Trifluoromethoxy-phenyl)-1H-benzimidazol-2-yl]-1-oxa-2-aza-spiro[4.5]dec-2-ene hydrochloride] | 83% | > 96% |
| – | – | Fc1cccc(OC(F)(F)F)c1-c1ccc2[nH]c(C3=NOC4(CCCCC4)C3)nc2c1 [Cpd 8, 3-[5-(2-Fluoro-6-trifluoromethoxy-phenyl)-1H-benzimidazol-2-yl]-1-oxa-2-aza-spiro[4.5]dec-2-ene hydrochloride] | – | > 96% |
| – | – | FC(F)(F)c1ccccc1-c1cc(Cl)c2[nH]c(C3=NOC4(CCCCC4)C3)nc2c1 [Cpd 16, 3-[7-Chloro-5-(2-trifluoromethylphenyl)-1H-benzimidazol-2-yl]-1-oxa-2-aza-spiro[4.5]dec-2-ene hydrochloride] | 82.5% | > 99% |
| 101% | 8.96 | CC1C(c2nc3cc(-c4ccccc4C(F)(F)F)cc(C(F)(F)F)c3[nH]2)=NOC12CCCCC2 (stereo not shown) [Cpd 28, 4-Methyl-3-[7-trifluormethyl-5-(2-trifluoromethyl-phenyl)-1H-benzimidazol-2-yl]-1-oxa-2-aza-spiro[4.5]dec-2-ene hydrochloride] | – | 30% |
| 97% | 8.24 | Cc1c(-c2ccccc2C(F)(F)F)cc(C)c2[nH]c(C3=NOC4(CCCCC4)C3)nc12 [Cpd 54, 3-[4,7-Dimethyl-5-(2-trifluoromethylphenyl)-1H-benzimidazol-2-yl]-1-oxa-2-aza-spiro[4.5]dec-2-ene hydrochloride] | – | – |
| 97% | 8.33 | Cc1c(-c2ccccc2C(F)(F)F)cc(Cl)c2[nH]c(C3=NOC4(CCCCC4)C3)nc12 [Cpd 55, 3-[7-Chloro-4-methyl-5-(2-trifluoromethylphenyl)-1H-benzimidazol-2-yl]-1-oxa-2-aza-spiro[4.5]dec-2-ene hydrochloride] | – | – |
| 101% | 8.34 | FC(F)(F)c1ccccc1-c1ccc2[nH]c(C3=NOC4(CCCCC4)C3)nc2n1 [Cpd 56, 2-(1-Oxa-2-aza-spiro[4.5]dec-2-en-3-yl)-5-(2-trifluoromethyl-phenyl)-1H-imidazo[4,5-b]pyridine hydrochloride] | – | – |
| 102% | 8.57 | FC(F)(F)c1ccccc1-c1cc2nc(C3=NOC4(CCCCC4)C3)[nH]c2cn1 [Cpd 57, 2-(1-Oxa-2-aza-spiro[4.5]dec-2-en-3-yl)-6-(2-trifluoromethyl-phenyl)-3H-imidazo[4,5-c]pyridine hydrochloride] | – | – |
| 101% | 8.70 | FC(F)(F)c1ccccc1-c1cnc2[nH]c(C3=NOC4(CCCCC4)C3)nc2c1 [Cpd 58, 2-(1-Oxa-2-aza-spiro[4.5]dec-2-en-3-yl)-6-(2-trifluoromethyl-phenyl)-3H-imidazo[4,5-b]pyridine hydrochloride] | – | – |

| SMILES | inhibition at 0.2 µM (canine TRPM8) | pIC50 (canine TRPM8) | inhibition in vivo at 10 mg/kg [1] | inhibition in vivo at 10 mg/kg [2] |
| --- | --- | --- | --- | --- |
| FC(F)(F)c1ccccc1-c1cc(C(F)(F)F)c2[nH]c(C3=NOC4(CCCCC4)C3)nc2c1 [Cpd 27, 3-[7-Trifluoromethyl-5-(2-trifluoromethyl-phenyl)-1H-benzimidazol-2-yl]-1-oxa-2-aza-spiro[4.5]dec-2-ene hydrochloride] | 100% | – | 83% | > 99% |
| FC(F)(F)c1cc(-c2ccccc2Cl)cc2nc(C3=NOC4(CCCCC4)C3)[nH]c12 [Cpd 30, 3-[5-(2-Chloro-phenyl)-7-trifluoromethyl-1H-benzimidazol-2-yl]-1-oxa-2-aza-spiro[4.5]dec-2-ene hydrochloride] | 97% | – | 62.9% | > 98% |
| FC(F)(F)Oc1ccccc1-c1cc(C(F)(F)F)c2[nH]c(C3=NOC4(CCCCC4)C3)nc2c1 [Cpd 51, 3-[5-(2-Trifluoromethoxyphenyl)-7-trifluoromethyl-1H-benzimidazol-2-yl]-1-oxa-2-aza-spiro[4.5]dec-2-ene hydrochloride] | 97% | – | 57.1% | > 98% |
| Fc1ccccc1-c1cc(C(F)(F)F)c2[nH]c(C3=NOC4(CCCCC4)C3)nc2c1 [Cpd 53, 3-[5-(2-Fluorophenyl)-7-trifluoromethyl-1H-benzimidazol-2-yl]-1-oxa-2-aza-spiro[4.5]dec-2-ene hydrochloride] | 97% | – | 42.9% | > 98% |
